Experimental data taken from PubChem BioAssay AID330 (DTP/NCI, 2004).
Where “and” joins values, the source holds several entries; their conditions need not be identical. Equal entries are not always repeated. Inconclusive results and toxic doses are left out.

Test system: P388 leukemia ip, CD2F1 mice, survival T/C
Assay: NCI In Vivo Anticancer Drug Screen. Data for tumor model P388 Leukemia (intraperitoneal) in CD2F1 (CDF1) mice
Details: endpoint: median survival time, higher = longer survival
Procedure, shortened: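 Mice carrying the transplanted tumor received test compound or vehicle. Survival was recorded in each group, and the value is the treated-group measurement divided by that of the vehicle-treated control group.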

[1] = dose: 100.0 mg/kg/injection, schedule: Q01DX009 (ip), vehicle: saline
[2] = dose: 200.0 mg/kg/injection, schedule: Q01DX009 (ip), vehicle: saline
[3] = dose: 100.0 mg/kg/injection, schedule: Q04DX003 (ip), vehicle: Klucel (hydroxypropylcellulose) (HPC)
[4] = dose: 200.0 mg/kg/injection, schedule: Q04DX003 (ip), vehicle: Klucel (hydroxypropylcellulose) (HPC)
[5] = dose: 400.0 mg/kg/injection, schedule: Q04DX003 (ip), vehicle: Klucel (hydroxypropylcellulose) (HPC)

## CN(C)C(=O)n1ccc(NC=O)n1
dose: 50.0 mg/kg/injection, schedule: Q01DX009 (ip), vehicle: saline
  T/C: 92 % of control
[1]
  T/C: 94 % of control
[2]
  T/C: 103 % of control

## CN1C2=C(C#N)C(=C(C#N)C#N)NC2C(C)(C)c2ccccc21 (configuration not stated)
dose: 50.0 mg/kg/injection, schedule: Q01DX009 (ip), vehicle: saline with Tween-80
  T/C: 96 % of control
dose: 100.0 mg/kg/injection, schedule: Q01DX009 (ip), vehicle: saline with Tween-80
  T/C: 88 % of control
dose: 200.0 mg/kg/injection, schedule: Q01DX009 (ip), vehicle: saline with Tween-80
  T/C: 92 % of control

## CC(=O)NC1=C(O)C2C(c3ccc(Cl)cc3)C(C#N)C(=O)N2C1=O (configuration not stated)
dose: 100.0 mg/kg/injection, schedule: Q01DX001 (ip), vehicle: saline
  T/C: 100 % of control
dose: 200.0 mg/kg/injection, schedule: Q01DX001 (ip), vehicle: saline
  T/C: 103 % of control
dose: 400.0 mg/kg/injection, schedule: Q01DX001 (ip), vehicle: saline
  T/C: 98 % of control

## N#C/C(=N\Nc1ccccc1Cl)C(=O)C1CC1
dose: 60.0 mg/kg/injection, schedule: Q01DX005 (ip), vehicle: Klucel (hydroxypropylcellulose) (HPC)
  T/C: 100 % of control
dose: 120.0 mg/kg/injection, schedule: Q01DX005 (ip), vehicle: Klucel (hydroxypropylcellulose) (HPC)
  T/C: 100 % of control
dose: 240.0 mg/kg/injection, schedule: Q01DX005 (ip), vehicle: Klucel (hydroxypropylcellulose) (HPC)
  T/C: 89 % of control

## CN1CC(NC(=O)N(CCCl)N=O)CC2c3cccc4c3c(cn4N=O)CC21 (configuration not stated)
dose: 50.0 mg/kg/injection, schedule: Q01DX001 (ip), vehicle: Klucel (hydroxypropylcellulose) (HPC)
  T/C: 166 % of control
dose: 100.0 mg/kg/injection, schedule: Q01DX001 (ip), vehicle: Klucel (hydroxypropylcellulose) (HPC)
  T/C: 166 % of control and 201 % of control
dose: 200.0 mg/kg/injection, schedule: Q01DX001 (ip), vehicle: Klucel (hydroxypropylcellulose) (HPC)
  T/C: 166 % of control

## CN(C)c1ccc(N=C(C#N)c2ccc(Cl)cc2)cc1
dose: 50.0 mg/kg/injection, schedule: Q04DX003 (ip), vehicle: Klucel (hydroxypropylcellulose) (HPC)
  T/C: 99 % of control
[3]
  T/C: 96 % of control
[4]
  T/C: 103 % of control
[5]
  T/C: 96 % of control

## CCCCCCCCCCSCC
[1]
  T/C: 95 % of control
dose: 100.0 mg/kg/injection, schedule: Q04DX003 (ip), vehicle: saline
  T/C: 100 % of control
[2]
  T/C: 100 % of control
dose: 200.0 mg/kg/injection, schedule: Q04DX003 (ip), vehicle: saline
  T/C: 91 % of control
dose: 400.0 mg/kg/injection, schedule: Q01DX009 (ip), vehicle: saline
  T/C: 104 % of control
dose: 400.0 mg/kg/injection, schedule: Q04DX003 (ip), vehicle: saline
  T/C: 100 % of control

## COc1ccc2ncc(CO)c(CO)c2c1
dose: 200.0 mg/kg/injection, schedule: Q01DX005 (ip), vehicle: Klucel (hydroxypropylcellulose) (HPC)
  T/C: 100 % of control

## COc1ccc(CSC(=S)Nc2cc(C)c(C)cc2Br)cc1
dose: 50.0 mg/kg/injection, schedule: Q01DX009 (ip), vehicle: suspension in saline
  T/C: 100 % of control
dose: 100.0 mg/kg/injection, schedule: Q01DX009 (ip), vehicle: suspension in saline
  T/C: 97 % of control
dose: 200.0 mg/kg/injection, schedule: Q01DX009 (ip), vehicle: suspension in saline
  T/C: 93 % of control

## CN(C)C(c1cccnc1)C1COCOC1 (configuration not stated)
dose: 50.0 mg/kg/injection, schedule: Q01DX005 (ip), vehicle: saline
  T/C: 109 % of control
dose: 100.0 mg/kg/injection, schedule: Q01DX005 (ip), vehicle: saline
  T/C: 106 % of control
dose: 200.0 mg/kg/injection, schedule: Q01DX005 (ip), vehicle: saline
  T/C: 98 % of control

## Oc1c(CNCc2ccc(Cl)c(Cl)c2)ccc2cccnc12
[3]
  T/C: 104 % of control
[4]
  T/C: 105 % of control
[5]
  T/C: 106 % of control

## CCN1CC2c3cc(OC)c(OC)cc3CC(c3ccccc3)C2C1 (configuration not stated)
dose: 6.25 mg/kg/injection, schedule: Q01DX009 (ip), vehicle: saline with Tween-80
  T/C: 120 % of control
dose: 12.5 mg/kg/injection, schedule: Q01DX009 (ip), vehicle: saline with Tween-80
  T/C: 120 % of control
dose: 25.0 mg/kg/injection, schedule: Q01DX009 (ip), vehicle: saline with Tween-80
  T/C: 100 % of control

## COc1ccc(/C=N/Nc2cc(C)nc3cc4c(cc23)OCO4)c2ccccc12
dose: 1.56 mg/kg/injection, schedule: Q01DX005 (ip), vehicle: Klucel (hydroxypropylcellulose) (HPC)
  T/C: 109 % of control
dose: 3.12 mg/kg/injection, schedule: Q01DX005 (ip), vehicle: Klucel (hydroxypropylcellulose) (HPC)
  T/C: 100 % of control
dose: 6.25 mg/kg/injection, schedule: Q01DX005 (ip), vehicle: Klucel (hydroxypropylcellulose) (HPC)
  T/C: 100 % of control and 102 % of control
dose: 12.5 mg/kg/injection, schedule: Q01DX005 (ip), vehicle: Klucel (hydroxypropylcellulose) (HPC)
  T/C: 110 % of control
